Test results reported in patent US5750499A, “Receptor-selective somatostatin analogs” (The Salk Institute for Biological Studies, priority 1995, dated 1998).
“Also recorded” adds a separate entry of the source. Where a SMILES comes first, the peptide text is derived from it. Bridges are numbered along the chain shown (N, C = ends). Where no end group is shown, it is not given here. [ ]: non-standard residue; d: D form. The star is where a group is joined. Phe(4-CH2NHiPr) = CC(C)NCc1ccc(C[C@H](N)C(=O)O)cc1; Tyr(3-I) = N[C@@H](Cc1ccc(O)c(I)c1)C(=O)O; 125I = [125I]*

Legend:
[1] = target: T1, mSSTR2 (Mus musculus, UniProt P30875); assay: Inhibition of [125I-Tyr11]SRIF binding to cloned mSSTR2 (Table)
T1 construct: expressed in transfected cells; host or cells: COS and CHO cells
Procedure: (§1) In vitro Bioassay: The effects of the various somatostatin analogs are tested in vitro for their ability to bind to isolated cloned receptors expressed on COS and CHO cells.
(§2) The molecular cloning of the genes encoding multiple somatostatin receptor subtypes permits the individual expression of these receptors in mammalian cells and the characterization of their respective pharmacological profiles.
(§3) Certain of the measurements are in progress.

[2] = target: T2, mSSTR3 (Mus musculus, UniProt P30935); assay: Inhibition of [125I-Tyr11]SRIF binding to cloned mSSTR3 (Table)
T2 construct: expressed in transfected cells; host or cells: COS and CHO cells
Procedure: as §1, §2, §3

[3] = target: T3, SSTR1 (Homo sapiens, UniProt P30872); assay: Inhibition of [125I-Tyr11]SRIF binding to cloned human SSTR1
T3 construct: expressed in transfected cells; host or cells: COS and CHO cells
Procedure: In a typical assay, an amount of protein from the cell homogenate is placed into a small volume of an appropriate assay buffer at an appropriate pH.
(§4) Alternatively, IC50 values indicative of the concentration of a competitive ligand necessary to displace a saturation concentration of a target ligand being measured from 50% of binding sites can also be calculated in such competitive assays.
as §1, §2

[4] = target: T4, mSSTR1 (Mus musculus, UniProt P30873); assay: Inhibition of [125I-Tyr11]SRIF binding to cloned mSSTR1 (Table)
T4 construct: expressed in transfected cells; host or cells: COS and CHO cells
Procedure: as §1, §2, §3

[5] = target: T3, SSTR1; assay: Inhibition of binding of iodinated Peptide No. 5 to SSTR1; details: radioligand iodinated Peptide No. 5
Text: as §4
(§5) The Bmax value represents the highest number of specific sites which can be occupied at a given time, i.e. the saturation point.

[6] = test system: COS-7 cells expressing SSTR1; assay: Forskolin-stimulated cAMP formation in COS-7 cells expressing SSTR1; type: cell-based; details: 1 μM of Peptide No. 2
[7] = target: T5, SSTR2 (Mus musculus, UniProt P30875); assay: Direct binding of iodinated Peptide No. 5 to cloned SSTR2
T5 construct: expressed in transfected cells; host or cells: COS and CHO cells
Text: as §5

[8] = target: T3, SSTR1; assay: Direct saturation binding of iodinated Peptide No. 5 to cloned SSTR1; details: iodinated peptide as radioligand
Text: as §4, §5

[9] = target: T6, SSTR3 (Mus musculus, UniProt P30935); assay: Direct binding of iodinated Peptide No. 5 to cloned SSTR3
T6 construct: expressed in transfected cells; host or cells: COS and CHO cells
Text: as §5

[10] = target: T7, SSTR1 expressed in COS-7 cells (Homo sapiens, UniProt P30872); assay: GTPgS and pertussis toxin regulation of radioligand binding to SSTR1 expressed in COS-7 cells
T7 construct: expressed in transfected cells; host or cells: COS-7 cells
Text: as §5

[11] = target: T8, SSTR5 (Rattus norvegicus, UniProt P30938); assay: Direct binding of iodinated Peptide No. 5 to cloned SSTR5
T8 construct: expressed in transfected cells; host or cells: COS and CHO cells
T8 sequence (P30938 1-363): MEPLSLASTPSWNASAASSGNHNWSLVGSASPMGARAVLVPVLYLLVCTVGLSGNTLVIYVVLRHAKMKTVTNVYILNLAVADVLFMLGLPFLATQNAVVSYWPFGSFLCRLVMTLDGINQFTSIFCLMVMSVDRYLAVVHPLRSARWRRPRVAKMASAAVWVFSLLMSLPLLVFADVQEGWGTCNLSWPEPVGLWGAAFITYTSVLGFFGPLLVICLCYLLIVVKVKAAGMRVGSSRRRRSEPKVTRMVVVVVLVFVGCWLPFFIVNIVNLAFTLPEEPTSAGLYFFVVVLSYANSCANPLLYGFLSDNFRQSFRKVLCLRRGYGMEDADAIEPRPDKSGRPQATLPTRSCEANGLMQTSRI
Text: as §5

[12] = target: T9, SSTR4 (Homo sapiens, UniProt P31391); assay: Direct binding of iodinated Peptide No. 5 to cloned SSTR4
T9 construct: expressed in transfected cells; host or cells: COS and CHO cells
Text: as §5

T7 sequence (P30872 whole entry): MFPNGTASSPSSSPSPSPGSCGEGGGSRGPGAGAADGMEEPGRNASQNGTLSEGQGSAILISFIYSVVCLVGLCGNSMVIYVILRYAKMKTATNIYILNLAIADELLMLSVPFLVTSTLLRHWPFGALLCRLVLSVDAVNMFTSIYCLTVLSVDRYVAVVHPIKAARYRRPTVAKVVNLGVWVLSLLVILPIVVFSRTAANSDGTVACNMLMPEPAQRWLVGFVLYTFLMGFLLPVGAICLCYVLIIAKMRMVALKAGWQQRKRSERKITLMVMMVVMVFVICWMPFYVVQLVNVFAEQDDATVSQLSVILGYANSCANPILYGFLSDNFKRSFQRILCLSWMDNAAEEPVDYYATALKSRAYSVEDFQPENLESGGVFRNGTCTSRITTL
T3 sequence (P30872 whole entry): as above
T2 sequence (P30935 whole entry): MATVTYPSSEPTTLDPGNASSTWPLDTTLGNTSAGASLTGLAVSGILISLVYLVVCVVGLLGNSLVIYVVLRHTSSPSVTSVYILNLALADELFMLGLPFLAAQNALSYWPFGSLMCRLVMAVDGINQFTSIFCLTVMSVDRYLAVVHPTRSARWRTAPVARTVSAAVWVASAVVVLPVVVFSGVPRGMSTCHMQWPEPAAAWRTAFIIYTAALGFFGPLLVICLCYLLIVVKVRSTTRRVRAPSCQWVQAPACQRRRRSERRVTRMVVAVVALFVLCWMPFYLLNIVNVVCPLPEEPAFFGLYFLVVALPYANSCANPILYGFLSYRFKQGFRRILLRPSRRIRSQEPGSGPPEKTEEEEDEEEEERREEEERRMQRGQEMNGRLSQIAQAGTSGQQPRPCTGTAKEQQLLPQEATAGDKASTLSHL
T1 sequence (P30875 whole entry): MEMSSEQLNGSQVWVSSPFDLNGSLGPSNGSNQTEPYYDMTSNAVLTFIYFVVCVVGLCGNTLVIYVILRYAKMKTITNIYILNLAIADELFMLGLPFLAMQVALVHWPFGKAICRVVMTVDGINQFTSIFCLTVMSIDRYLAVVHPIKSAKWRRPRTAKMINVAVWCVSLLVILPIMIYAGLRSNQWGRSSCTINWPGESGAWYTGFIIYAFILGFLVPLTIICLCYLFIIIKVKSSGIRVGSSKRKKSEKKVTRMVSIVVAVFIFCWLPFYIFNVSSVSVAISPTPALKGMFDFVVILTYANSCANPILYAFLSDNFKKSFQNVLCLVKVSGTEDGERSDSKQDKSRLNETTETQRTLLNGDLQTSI
T4 sequence (P30873 whole entry): as the sequence (P30872 whole entry) above, with G25A, G26C, A32S, T385A, T389S counted along it
T9 sequence (P31391 whole entry): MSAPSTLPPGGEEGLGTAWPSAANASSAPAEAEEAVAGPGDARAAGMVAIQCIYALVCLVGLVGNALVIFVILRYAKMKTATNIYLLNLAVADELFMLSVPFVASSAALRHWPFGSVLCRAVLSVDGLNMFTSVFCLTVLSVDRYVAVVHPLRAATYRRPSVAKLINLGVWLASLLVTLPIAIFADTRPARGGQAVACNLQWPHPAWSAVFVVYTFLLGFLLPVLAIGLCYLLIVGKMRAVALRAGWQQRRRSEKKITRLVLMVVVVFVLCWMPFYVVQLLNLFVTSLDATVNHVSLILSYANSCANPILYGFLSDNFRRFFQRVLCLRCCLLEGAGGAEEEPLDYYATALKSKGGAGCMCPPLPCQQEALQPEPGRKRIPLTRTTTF
T6 sequence (P30935 whole entry): as the sequence (P30935 whole entry) above
T5 sequence (P30875 whole entry): as the sequence (P30875 whole entry) above

Molecule | IC50 [1] [nM] | IC50 [2] [nM] | IC50 [4] [nM] | other results
CC(C)NCc1ccc(C[C@@H]2NC(=O)[C@@H](Cc3c[nH]c4ccccc34)NC(=O)[C@H](Cc3ccccc3)NC(=O)[C@H](Cc3ccccc3)NC(=O)[C@H](CCCCN)NC(=O)[C@@H](N)CSSC[C@@H](C(=O)O)NC(=O)[C@H](CO)NC(=O)[C@H]([C@@H](C)O)NC(=O)[C@H](Cc3ccccc3)NC(=O)[C@H]([C@@H](C)O)NC2=O)cc1 [Peptide No. 2, des-AA^1,2,5 [D-Trp^8, IAmp^9]-SRIF] (H-CKFF[dW][Phe(4-CH2NHiPr)]TFTSC-OH; disulfide 1-11) | 1100 | 1000 | 1 | IC50 [3]: 1.8 ± 0.7 nM
CC(C)NCc1ccc(C[C@@H]2NC(=O)[C@@H](Cc3c[nH]c4ccccc34)NC(=O)[C@H](Cc3ccccc3)NC(=O)[C@H](Cc3ccccc3)NC(=O)[C@H](CCCCN)NC(=O)[C@@H](N)CSSC[C@@H](C(=O)O)NC(=O)[C@@H](CO)NC(=O)[C@H]([C@@H](C)O)NC(=O)[C@H](Cc3ccccc3)NC(=O)[C@H]([C@@H](C)O)NC2=O)cc1 [Peptide No. 4, des-AA^1,2,5-[D-Trp^8, IAmp^9, D-Ser^13]SRIF] (H-CKFF[dW][Phe(4-CH2NHiPr)]TFT[dS]C-OH; disulfide 1-11) | > 1000 | 178 | 1.25 | IC50 [5]: 5.3 ± 0.8 nM
CC(C)NCc1ccc(C[C@@H]2NC(=O)[C@@H](Cc3c[nH]c4ccccc34)NC(=O)[C@H](Cc3ccccc3)NC(=O)[C@H](Cc3ccccc3)NC(=O)[C@H](CCCCN)NC(=O)[C@@H](NC(=O)[C@@H](N)Cc3ccc(O)cc3)CSSC[C@@H](C(=O)O)NC(=O)[C@H](CO)NC(=O)[C@H]([C@@H](C)O)NC(=O)[C@H](Cc3ccccc3)NC(=O)[C@H]([C@@H](C)O)NC2=O)cc1 [Peptide No. 5] (H-YCKFF[dW][Phe(4-CH2NHiPr)]TFTSC-OH; disulfide 2-12) | > 100 | > 100 | 0.8 | –
CC(C)NCc1ccc(C[C@@H]2NC(=O)[C@@H](Cc3c[nH]c4ccccc34)NC(=O)[C@H](Cc3ccccc3)NC(=O)[C@H](Cc3ccccc3)NC(=O)[C@H](CC(N)=O)NC(=O)[C@H](CCCCN)NC(=O)[C@@H](N)CSSC[C@@H](C(=O)O)NC(=O)[C@H](CO)NC(=O)[C@H]([C@@H](C)O)NC(=O)[C@H](Cc3ccccc3)NC(=O)[C@H]([C@@H](C)O)NC2=O)cc1 [Peptide No. 9] (H-CKNFF[dW][Phe(4-CH2NHiPr)]TFTSC-OH; disulfide 1-12) | > 1000 | > 1000 | 54 | –
C[C@H](N)C(=O)NCC(=O)N[C@H]1CSSC[C@@H](C(=O)O)NC(=O)[C@H](CO)NC(=O)[C@H]([C@@H](C)O)NC(=O)[C@H](Cc2ccccc2)NC(=O)[C@H]([C@@H](C)O)NC(=O)[C@H](CCCCN)NC(=O)[C@H](Cc2c[nH]c3ccccc23)NC(=O)[C@H](Cc2ccccc2)NC(=O)[C@H](Cc2ccccc2)NC(=O)[C@H](CC(N)=O)NC(=O)[C@H](CCCCN)NC1=O [SRIF, somatostatin-14] | – | – | – | inhibition of forskolin-stimulated cAMP formation [6]: Neither 1 μM of Peptide No. 2, nor SRIF itself, inhibits forskolin-stimulated cAMP formation
CC(C)NCc1ccc(C[C@@H]2NC(=O)[C@@H](Cc3c[nH]c4ccccc34)NC(=O)[C@H](Cc3ccccc3)NC(=O)[C@H](Cc3ccccc3)NC(=O)[C@@H](N)CSSC[C@@H](C(=O)O)NC(=O)[C@H](Cc3ccccc3)NC(=O)[C@H]([C@@H](C)O)NC2=O)cc1 [[IAmp^9]ODT8, [IAmp^5]-ODT8] (H-CFF[dW][Phe(4-CH2NHiPr)]TFC-OH; disulfide 1-8) | > 1000 | 500 | 160 | –
CC(C)NCc1ccc(C[C@@H]2NC(=O)[C@@H](Cc3c[nH]c4ccccc34)NC(=O)[C@H](Cc3ccccc3)NC(=O)[C@H](Cc3ccccc3)NC(=O)[C@H](CCCCN)NC(=O)[C@@H](NC(=O)[C@@H](N)Cc3ccc(O)c(I)c3)CSSC[C@@H](C(=O)O)NC(=O)[C@H](CO)NC(=O)[C@H]([C@@H](C)O)NC(=O)[C@H](Cc3ccccc3)NC(=O)[C@H]([C@@H](C)O)NC2=O)cc1 [^125 I-Tyr^2-des-AA^1,5-[D-Trp^8,IAmp^9]SRIF] (H-[Tyr(3-I)]CKFF[dW][Phe(4-CH2NHiPr)]TFTSC-OH; disulfide 2-12) | – | – | – | specific binding of iodinated peptide to SSTR2 [7]: did not bind; Bmax, binding to SSTR1 [8]: 226±56 fmol/mg protein; specific binding of iodinated peptide to SSTR3 [9]: did not bind; effect of GTPgS and pertussis toxin treatment on binding of the radioligand to SSTR1 [10]: reduced by GTPgS and pertussis toxin treatment; specific binding of iodinated peptide to SSTR5 [11]: did not bind; specific binding of iodinated peptide to SSTR4 [12]: did not bind
[^125 I-Tyr^11 ]SRIF (AGCKNFFWKTY(125I)TSC; ends and bridges not checked; UniProt P61278 103-116, looked up, variant F11Y) | – | – | – | effect of GTPgS and pertussis toxin treatment on binding of the radioligand to SSTR1 [10]: did not diminish; also recorded: not significantly effected by GTP analogs nor pertussis toxin treatment
